Numbered stars: 1 amine (or outer) side, 2 acyl side, 3 side chain; on linkers, the order of the positions; unused ones are H or OH. Bridge positions count the residues as written; N and C are the ends. Square brackets hold non-standard residues; d marks the D form. * marks the point of attachment. PEG24 = NCCOCCOCCOCCOCCOCCOCCOCCOCCOCCOCCOCCOCCOCCOCCOCCOCCOCCOCCOCCOCCOCCOCCOCCOCCC(=O)O; C20 diacid = O=C(O)CCCCCCCCCCCCCCCCCCC(=O)*; γGlu = O=C(O)[C@H](CCC(=O)[*:2])N[*:1]; CH2 = C([*:1])[*:2]
The molecules below were run against T1, rat NPRA (Rattus norvegicus, UniProt P18910) (assay: Rat NPRA cGMP activity assay (HTRF) in HEK293 cells overexpressing NPRA). Conditions: assay buffer with 0.1% casein, read-out: cGMP Assay (EC50, pM) w/Casein rNPRA.
T1 construct: Full-Length cDNA Cloning and Generation of Cell Lines Overexpressing Natriuretic Peptide Receptors (NPRs); expressed in transfected cells; host or cells: Jump-in T-Rex HEK293 cells, pJTI R4 CMV-TO MCS pA vector, tetracycline induction
T1 sequence (P18910 29-1057): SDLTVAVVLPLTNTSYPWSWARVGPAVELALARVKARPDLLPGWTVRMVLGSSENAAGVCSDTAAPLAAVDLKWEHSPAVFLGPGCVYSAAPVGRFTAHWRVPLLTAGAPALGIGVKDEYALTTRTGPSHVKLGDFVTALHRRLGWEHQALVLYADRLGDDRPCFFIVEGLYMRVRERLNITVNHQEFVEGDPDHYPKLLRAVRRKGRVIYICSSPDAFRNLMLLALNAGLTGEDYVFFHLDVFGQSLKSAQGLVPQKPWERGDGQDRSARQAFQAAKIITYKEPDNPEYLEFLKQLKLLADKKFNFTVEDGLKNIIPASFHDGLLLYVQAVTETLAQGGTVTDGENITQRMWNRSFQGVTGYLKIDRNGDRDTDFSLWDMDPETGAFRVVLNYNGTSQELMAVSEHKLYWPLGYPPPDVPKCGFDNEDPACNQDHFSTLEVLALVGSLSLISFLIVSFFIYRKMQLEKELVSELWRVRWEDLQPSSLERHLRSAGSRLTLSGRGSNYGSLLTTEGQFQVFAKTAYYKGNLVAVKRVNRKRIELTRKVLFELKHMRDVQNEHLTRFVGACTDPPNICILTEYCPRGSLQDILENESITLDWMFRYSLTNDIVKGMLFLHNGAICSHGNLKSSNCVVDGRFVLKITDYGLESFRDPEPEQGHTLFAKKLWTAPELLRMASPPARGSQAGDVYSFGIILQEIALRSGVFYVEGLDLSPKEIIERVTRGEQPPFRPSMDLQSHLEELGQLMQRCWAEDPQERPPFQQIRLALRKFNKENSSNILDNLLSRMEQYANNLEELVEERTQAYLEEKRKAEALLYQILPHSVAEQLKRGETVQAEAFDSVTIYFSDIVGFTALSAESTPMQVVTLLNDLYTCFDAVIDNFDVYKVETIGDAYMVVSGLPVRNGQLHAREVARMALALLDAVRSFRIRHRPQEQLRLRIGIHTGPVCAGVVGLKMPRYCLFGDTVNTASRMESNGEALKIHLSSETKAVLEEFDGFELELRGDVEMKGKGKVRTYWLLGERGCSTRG
Assay type: cell-based
Method: All sequences were verified by full-length sequencing performed by ACGT DNA Sequencing Services (Wheeling, IL). The target cDNA was cloned into pJTI R4 CMV-TO MCS pA vector and then co-transfected with pJT1R4 Int vector into Jump-in™ T-Rex™ HEK293 cells for mammalian inducible expression using Jump-in™ T-Rex™ HEK293 kit and Lipofectamine LTX and Plus Reagent following manufacturer's protocols, as briefly described below.
Jump-in™ T-Rex™ HEK293 cells were plated in a BioCOAT® poly-D-lysine coated 6-well plate (Becton Dickinson, cat no. 354413) at 1 million cells/well in 2 mL culture medium and incubated for 18 h at 37° C. and 5% CO2 to 50-70% confluence. A cDNA mix was made in a 50 mL tube by adding 1.5 μg target cDNA, 1.5 μg pJT1R4 Int vector, 3 μL Plus Reagent, and 300 μL Opti-MEM I sequentially into the tube. A reagent mix was made in a separate 50 mL tube by adding 7.5 μL Lipofectamine LTX into 300 μL Opti-MEM I. The mixtures were incubated for 5 min at room temperature. The cDNA mix was then transferred into the reagent mix, mixed well, and incubated for additional 30 min at room temperature. A 500 μL of cDNA/Lipofectamine complex was then transferred to the wells of the cell plate in which the culture medium was changed to 2 mL of transfection medium containing DMEM with 4.5 g/L D-glucose supplemented with 10% FBS-HI and 20 mM HEPES. Transfected cells were cultured for 48 h in an incubator at 37° C. and 5% CO2. A subclone or pool from each overexpressing cell line was maintained in culture medium with the addition of 2 mg/mL G418 sulfate for the clone selection based on its built-in resistance to G418 sulfate for at least 3 weeks with medium changed every 2-3 days.
NPRs were overexpressed in T-Rex™ HEK293 cells following the induction with 300 ng/mL tetracycline in culture medium for 48 h. Induced cell lines in an exponential growth phase were treated with 0.05% trypsin-EDTA for a few seconds at room temperature, harvested in cell medium containing FBS to neutralize the trypsin, counted, and cryopreserved at the density of 2 million cells/mL in cell preservation solution containing FBS-HI with 5% DMSO. Cryopreserved cells were stored at −80° C. for a few days prior to transferring to a liquid nitrogen tank. Induced cell lines were then used for suspension assays to measure the activity of polypeptides to stimulate cGMP production in cGMP assays or for the preparation of cell membranes to measure the binding activity of polypeptides in competitive radioligand binding assays, as described below.
Test polypeptides were added starting at 10 μM concentration and at 10-fold decreasing concentrations to obtain 8-point concentration-response curves (i.e., 10 μM to 1 pM). The quantity of cGMP generated was detected using HTRF® technology and normalized to maximum amount produced by 100 nM amidated rat ANP and the minimum amount produced by assay buffer. Detailed steps are outlined below.
Stock solutions of test polypeptides (2 mM) dissolved in DMSO were first diluted 100-fold in assay buffer containing HBSS with Ca^2+ and Mg^2+, 5 mM HEPES, 0.5 mM IBMX, and 0.1% BSA or 0.1% casein (pH 7.4). The polypeptides were further serially diluted in 1:10 dilution steps in assay buffer containing 0.1% BSA or 0.1% casein to generate 8-point 2× working stock solutions ranging from 20 μM to […].
A 10 μL cell suspension containing 4000 cells was plated in Costar® half-area white opaque 96-well plates (Corning, cat no. 3693). Then 10 μL of assay buffer (basal activity), 200 nM of amidated rat ANP (maximum activity) or 2× working stock solutions of test polypeptides were transferred into the plate. Final concentration of DMSO in each well was 0.5%. The plate was shaken for 15 sec and then incubated for 40 min at room temperature.
The cGMP generated was measured using cGMP kit following the manufacturer's directions, as described below.

`CC[C@H](C)[C@@H]1NC(=O)[C@H](CCCNC(=N)N)NC(=O)[C@H](CC(=O)O)NC(=O)[C@H]([C@@H](C)CC)NC(=O)[C@H](CCCNC(=N)N)NC(=O)[C@H](CCCCN)NC(=O)CNC(=O)[C@H](Cc2ccccc2)NC(=O)[C@@H](NC(=O)[C@H](CO)NC(=O)[C@H](CO)NC(=O)[C@H](CCCNC(=N)N)NC(=O)CCNC(=O)[C@H](CCCCN)NC(=O)[C@H](CCC(=O)O)NC(=O)COCCOCCNC(=O)COCCOCCNC(=O)COCCOCCNC(=O)COCCOCCNC(=O)COCCOCCNC(=O)COCCOCCNC(=O)COCCOCCNC(=O)COCCOCCNC(=O)CNC(=O)[C@H](CCCCN)NC(=O)[C@H](CCC(=O)O)NC(=O)[C@H](CCCCN)NC(=O)[C@H](CCC(=O)O)NC(=O)[C@H](CCCCN)NC(=O)[C@H](CCC(=O)O)NC(=O)CC[C@H](NC(=O)CCCCCCCCCCCCCCCCCCC(=O)O)C(=O)O)CSCSC[C@@H](C(=O)N2CCC[C@H]2C(=O)N[C@@H](CO)C(=O)N[C@@H](Cc2ccccc2)C(=O)N[C@@H](CCCNC(=N)N)C(=O)N[C@@H](Cc2c[nH]cn2)C(=O)NCC(=O)N[C@@H](CO)C(=O)N2CCC[C@H]2C(=O)N[C@@H](CO)C(=O)N[C@@H](CO)C(=O)NCC(=O)N[C@@H](C)C(=O)N2CCC[C@H]2C(=O)N2CCC[C@H]2C(=O)N2CCC[C@H]2C(=O)N[C@@H](CO)C(N)=O)NC(=O)CNC(=O)[C@H](CC(C)C)NC(=O)CNC(=O)[C@H](CO)NC(=O)[C@H](CCC(N)=O)NC(=O)[C@H](Cc2c[nH]cn2)NC(=O)CNC1=O` [Example 120] and `CC[C@H](C)[C@@H]1NC(=O)[C@H](CCCNC(=N)N)NC(=O)[C@H](CC(=O)O)NC(=O)[C@H]([C@@H](C)CC)NC(=O)[C@H](CCCNC(=N)N)NC(=O)CNC(=O)CNC(=O)[C@H](Cc2ccccc2)NC(=O)[C@@H](NC(=O)[C@H](CO)NC(=O)[C@H](CO)NC(=O)[C@H](CCCNC(=N)N)NC(=O)[C@H](CCCNC(=N)N)NC(=O)[C@H](Cc2ccncc2)NC(=O)[C@H](CO)NC(=O)CCOCCOCCOCCOCCOCCOCCOCCOCCOCCOCCOCCOCCNC(=O)CNC(=O)[C@H](CCCCN)NC(=O)[C@H](CCC(=O)O)NC(=O)[C@H](CCCCN)NC(=O)[C@H](CCC(=O)O)NC(=O)[C@H](CCCCN)NC(=O)[C@H](CCC(=O)O)NC(=O)CC[C@H](NC(=O)CCCCCCCCCCCCCCCCCCC(=O)O)C(=O)O)CSCSC[C@@H](C(=O)N2CCC[C@H]2C(=O)N[C@@H](CO)C(=O)N[C@@H](Cc2ccccc2)C(=O)N[C@@H](CCCNC(=N)N)C(=O)N[C@@H](Cc2c[nH]cn2)C(=O)NCC(=O)NCC(=O)N[C@@H](CCCCN)C(=O)N[C@@H](CO)C(=O)N[C@@H](CO)C(=O)NCC(=O)N[C@@H](C)C(=O)N2CCC[C@H]2C(=O)N2CCC[C@H]2C(=O)N2CCC[C@H]2C(=O)N[C@@H](CO)C(N)=O)NC(=O)CNC(=O)[C@H](CC(C)C)NC(=O)CNC(=O)[C@H](CO)NC(=O)[C@H](CCC(N)=O)NC(=O)[C@H](Cc2c[nH]cn2)NC(=O)CNC1=O` [Example 82] are the same in EC50: 25400 pM for the first, 25400 pM for the second.

“{C20 diacid-γGlu}-EKEKEKG[PEG24]EKPRSSCFGKGIDRIGHQSGLGCPSFRHSGSPSSGAPPPSG-NH2 (linker 15-31 via CH2) [Example 133, HOOC-(CH2)18-CO-(γGlu)-EKEKEKG-PEG24-EKPRSS[CFGKGIDRIGHQSGLGCJPSFRHSGSPSSGAPPPSG-NH2]” gave an EC50 of 581000 pM.
